The NIST ThermoML archive (doi:10.1021/acs.jced.7b00971)

How the values were obtained:
[1] = 101 kPa, Liquid, Capillary tube (Ostwald / Ubbelohde) method
[2] = xn = mol fraction of the nth substance listed; settings: 101 kPa, Liquid, Capillary tube (Ostwald / Ubbelohde) method

Cc1ccccc1C [1,2-dimethylbenzene]
[1]
Settings	viscosity [mPa·s]
303.15 K	0.71
308.15 K	0.666
313.15 K	0.628
318.15 K	0.591
323.15 K	0.56

Cc1ccccc1C [1,2-dimethylbenzene] + CO
viscosity [mPa·s], [2]
Settings	x2 = 0	x2 = 0.1007	x2 = 0.2013	x2 = 0.2961	x2 = 0.403	x2 = 0.5003	x2 = 0.601	x2 = 0.7025	x2 = 0.8006	x2 = 0.9013
303.15 K	0.71	0.684	0.674	0.671	0.666	0.663	0.655	0.638	0.61	0.567
308.15 K	0.666	0.641	0.631	0.626	0.621	0.617	0.607	0.595	0.567	0.53
313.15 K	0.628	0.603	0.591	0.587	0.582	0.577	0.569	0.554	0.531	0.495
318.15 K	0.591	0.566	0.555	0.55	0.543	0.538	0.531	0.516	0.494	0.462
323.15 K	0.56	0.535	0.523	0.517	0.511	0.506	0.496	0.484	0.462	0.434

Cc1cccc(C)c1 [1,3-dimethylbenzene]
[1]
Settings	viscosity [mPa·s]
303.15 K	0.554
308.15 K	0.524
313.15 K	0.498
318.15 K	0.472
323.15 K	0.452

Cc1cccc(C)c1 [1,3-dimethylbenzene] + CO
viscosity [mPa·s], [2]
Settings	x2 = 0	x2 = 0.1008	x2 = 0.2003	x2 = 0.2999	x2 = 0.4	x2 = 0.4997	x2 = 0.6003	x2 = 0.7001	x2 = 0.8001	x2 = 0.9012
303.15 K	0.554	0.539	0.542	0.548	0.553	0.56	0.566	0.57	0.565	0.546
308.15 K	0.524	0.51	0.51	0.514	0.519	0.526	0.53	0.532	0.526	0.509
313.15 K	0.498	0.483	0.483	0.485	0.488	0.493	0.496	0.497	0.492	0.477
318.15 K	0.472	0.456	0.456	0.457	0.46	0.462	0.465	0.466	0.46	0.445
323.15 K	0.452	0.435	0.433	0.433	0.434	0.437	0.437	0.437	0.432	0.419

Cc1ccc(C)cc1 [1,4-dimethylbenzene]
[1]
Settings	viscosity [mPa·s]
303.15 K	0.574
308.15 K	0.542
313.15 K	0.514
318.15 K	0.486
323.15 K	0.461

Cc1ccc(C)cc1 [1,4-dimethylbenzene] + CO
viscosity [mPa·s], [2]
Settings	x2 = 0	x2 = 0.1001	x2 = 0.1998	x2 = 0.3015	x2 = 0.4005	x2 = 0.5	x2 = 0.5999	x2 = 0.7005	x2 = 0.8	x2 = 0.8984
303.15 K	0.574	0.559	0.556	0.563	0.567	0.573	0.576	0.577	0.568	0.549
308.15 K	0.542	0.527	0.524	0.527	0.529	0.533	0.536	0.536	0.529	0.512
313.15 K	0.514	0.498	0.494	0.496	0.498	0.501	0.504	0.502	0.495	0.479
318.15 K	0.486	0.469	0.465	0.466	0.467	0.469	0.469	0.469	0.462	0.447
323.15 K	0.461	0.445	0.439	0.44	0.44	0.443	0.443	0.441	0.434	0.42

CO [methanol]
[1]
Settings	viscosity [mPa·s]
303.15 K	0.513
308.15 K	0.48
313.15 K	0.45
318.15 K	0.422
323.15 K	0.397

CO [methanol] + Cc1ccc(C)cc1
[2], x1 = 1
Settings	viscosity [mPa·s]
303.15 K	0.513
308.15 K	0.48
313.15 K	0.45
318.15 K	0.422
323.15 K	0.397

CO [methanol] + Cc1cccc(C)c1
[2], x1 = 1
Settings	viscosity [mPa·s]
303.15 K	0.513
308.15 K	0.48
313.15 K	0.45
318.15 K	0.422
323.15 K	0.397

CO [methanol] + Cc1ccccc1C
[2], x1 = 1
Settings	viscosity [mPa·s]
303.15 K	0.513
308.15 K	0.48
313.15 K	0.45
318.15 K	0.422
323.15 K	0.397
